One data set deals with HeLa cells. Briefly: Imaging of H2S delivery in HeLa cells with SF7-AM probe. Format: cell-based. The following applies: compound 50 μM 30 minutes, SF7-AM 5 μM. The protocol:
In this example, H2S delivery from sulfenyl thiocarbamate compound 306a in HeLa cells was evaluated. HeLa cells were treated with Hoechst dye and SF7-AM (5 μM) in DMEM only for 5 minutes and then with DMEM only for 30 minutes (top row) or DMEM containing the compound (50 μM) for 30 minutes (bottom row). Cells were then washed with PBS and cell images were taken in PBS using a fluorescent microscope.

Data set [1] is described as follows: Thiol-triggered H2S release in PBS containing CA (MB assay). Particulars: compound 50 μM. The method, then: To evaluate thiol effects on COS/H2S release from cyclic perthiocarbamate compound embodiments, compound 306a (50 μM) was incubated in PBS (pH 7.4, 10 mM) containing Cys or GSH (up to 4.0 mM) and CA (25 μg/mL) and H2S release was monitored by MB assay. […] Additionally, other thiol triggers, such as cysteine, homocysteine, and N-acetyl cysteine, were combined with compound 306a to evaluate if they would trigger the compound to release H2S.
In this example, GSH-triggered H2S release from compound 900 was evaluated. […] To improve the H2S releasing capacity of ATB-346, compound 900 was made by reacting ATB-346 with chlorocarbonyl sulfenyl chloride reagent (see Scheme 9). The resultant compound 900 was then added to PBS containing GSH and CA.
Release of H2S from compound 404c (25 μM) in the presence of L-cysteine or reduced glutathione (GSH) (500 μM, 20 equiv.) measured by the spectrophotometric methylene blue assay, with results shown in FIG. 17.
In this example, additional compounds, such as cyclic sulfenyl thiocarbamate compounds 306a-306e, were evaluated for their ability to release H2S upon exposure to a biological thiol, cysteine.
With the hybrid NSAID in hand, COS/H2S release in aqueous buffer was evaluated.

With `O=c1nc(-c2ccccc2)ss1` [Compound 306a], the “SF7-AM (H2S probe) fluorescence in HeLa cells” value with HeLa cells is recorded as “strong SF7-AM fluorescent signal”. The “GSH-dependent H2S release” value in data set [1] (GSH up to 4.0 mM, CA 25 μg/mL, PBS pH 7.4) was “GSH-dependent H2S release was observed”. In data set [1] (PBS, CA), the “H2S release in the presence of thiols GSH, Cys, Hcy, and NAC” value is listed as “H2S release was observed”; the “H2S release with GSSG, Lys, Ser, Gly, S2O3^2−, SO3^2−, SO4^2−” value was “did not activate the compound and minimal H2S release was observed”; the “H2S release with penicillamine” value is “minimal H2S release”. The “H2S release in the absence of thiol trigger” value in data set [1] (PBS, no thiol) was “Negligible H2S release was observed”.

For the origin of these results see US20210214368A1, “COMPOUNDS FOR THIOL-TRIGGERED COS AND/OR H2S RELEASE AND METHODS OF MAKING AND USING THE SAME” (University of Oregon, priority 2018, published 2021).
